According to patent US20120295907A1, “INSECTICIDAL COMPOUNDS” (SYNGENTA CROP PROTECTION, LLC, priority 2009, published 2012):

Legend:
Format in all cases: in vivo
[1] = tested on: Thrips tabaci; test: Thrips tabaci (Onion Thrips) sunflower leaf disc spray test; conditions: foliar, 168 h, 200 ppm spray on sunflower leaf discs, population of mixed ages, 7 days, mortality
[2] = tested on: Plutella xylostella; test: Plutella xylostella (Diamond Back Moth) artificial diet MTP test; conditions: 144 h, 200 ppm (concentration in well 18 ppm), L2 larvae, 6 days, larval mortality, growth regulation
[3] = tested on: Spodoptera littoralis; test: Spodoptera littoralis (Egyptian Cotton Leafworm) cotton leaf disc spray test; conditions: foliar, 72 h, 200 ppm spray on cotton leaf discs, L1 larvae, mortality, feeding behavior, growth regulation 3 DAT
[4] = tested on: Diabrotica balteata; test: Diabrotica balteata (Corn Root Worm) artificial diet MTP test; conditions: 120 h, 200 ppm (concentration in well 18 ppm), L2 larvae, 5 days, larval mortality, growth regulation
[5] = tested on: Heliothis virescens; test: Heliothis virescens (Tobacco Budworm) egg test on artificial diet; conditions: 96 h, 200 ppm (concentration in well 18 ppm), eggs 0-24 h old on artificial diet, 4 days, egg mortality, larval mortality, growth regulation

Measured: pest or weed control at 200 ppm

CCc1cc(C(F)(C(F)(F)F)C(F)(F)C(F)(F)F)cc(C)c1NC(=O)c1cccc(NC(=O)c2cccc(Cl)c2)c1OC (stereo not drawn) [A8]
≥ 80%: all assays above

CCc1cc(C(F)(C(F)(F)F)C(F)(F)C(F)(F)F)cc(C)c1NC(=O)c1cccc(NC(=O)c2ccccc2Cl)c1OC (stereo not drawn) [A9]
≥ 80%: all assays above

CCc1cc(C(F)(C(F)(F)F)C(F)(F)C(F)(F)F)cc(C)c1NC(=O)c1cccc(NC(=O)c2ccccc2)c1OC (stereo not drawn) [A19]
≥ 80%: all assays above

CCc1cc(C(F)(C(F)(F)F)C(F)(F)C(F)(F)F)cc(C)c1NC(=O)c1cccc(NC(=O)c2cccc(F)c2F)c1OC (stereo not drawn) [A20]
≥ 80%: all assays above

COc1c(NC(=O)c2ccccc2C(F)(F)F)cccc1C(=O)Nc1c(Cl)cc(C(F)(C(F)(F)F)C(F)(F)C(F)(F)F)cc1Br (stereo not drawn) [B20]
≥ 80%: all assays above

COc1c(NC(=O)c2ccc(C(C)C)cc2)cccc1C(=O)Nc1c(Cl)cc(C(F)(C(F)(F)F)C(F)(F)C(F)(F)F)cc1Br (stereo not drawn) [B25]
≥ 80%: all assays above

COc1c(NC(=O)c2cc(Cl)ccc2Cl)cccc1C(=O)Nc1c(Cl)cc(C(F)(C(F)(F)F)C(F)(F)C(F)(F)F)cc1Br (stereo not drawn) [B27]
≥ 80%: all assays above

COc1c(NC(=O)c2c(-c3ccccc3)noc2C)cccc1C(=O)Nc1c(Cl)cc(C(F)(C(F)(F)F)C(F)(F)C(F)(F)F)cc1Br (stereo not drawn) [B46]
≥ 80%: [1]

COc1c(NC(=O)c2ccc(-c3ccccc3)o2)cccc1C(=O)Nc1c(Cl)cc(C(F)(C(F)(F)F)C(F)(F)C(F)(F)F)cc1Br (stereo not drawn) [B49]
≥ 80%: [1]

COc1c(NC(=O)c2ccc(Br)o2)cccc1C(=O)Nc1c(Cl)cc(C(F)(C(F)(F)F)C(F)(F)C(F)(F)F)cc1Br (stereo not drawn) [B52]
≥ 80%: all assays above

COc1c(NC(=O)c2cc(C)oc2C)cccc1C(=O)Nc1c(Cl)cc(C(F)(C(F)(F)F)C(F)(F)C(F)(F)F)cc1Br (stereo not drawn) [B58]
≥ 80%: all assays above

COc1c(NC(=O)c2cccc(C)c2[N+](=O)[O-])cccc1C(=O)Nc1c(Cl)cc(C(F)(C(F)(F)F)C(F)(F)C(F)(F)F)cc1Br (stereo not drawn) [B87]
≥ 80%: all assays above

COc1c(NC(=O)c2cc(C(F)(F)F)n(C)n2)cccc1C(=O)Nc1c(Cl)cc(C(F)(C(F)(F)F)C(F)(F)C(F)(F)F)cc1Br (stereo not drawn) [B92]
≥ 80%: [1] | [3] | [4]

COc1c(NC(=O)c2cc(C(C)(C)C)nn2C)cccc1C(=O)Nc1c(Cl)cc(C(F)(C(F)(F)F)C(F)(F)C(F)(F)F)cc1Br (stereo not drawn) [B112]
≥ 80%: all assays above

COc1c(NC(=O)c2ccnc(C(F)(F)F)c2Cl)cccc1C(=O)Nc1c(Cl)cc(C(F)(C(F)(F)F)C(F)(F)C(F)(F)F)cc1Br (stereo not drawn) [B115]
≥ 80%: all assays above

COc1cc(C(=O)Nc2cccc(C(=O)Nc3c(Cl)cc(C(F)(C(F)(F)F)C(F)(F)C(F)(F)F)cc3Br)c2OC)cc(Cl)n1 (stereo not drawn) [B146]
≥ 80%: all assays above

COc1c(NC(=O)c2ccc([N+](=O)[O-])c(C)c2I)cccc1C(=O)Nc1c(Cl)cc(C(F)(C(F)(F)F)C(F)(F)C(F)(F)F)cc1Br (stereo not drawn) [B161]
not listed: [3]
≥ 80%: all other assays above

COc1c(NC(=O)c2ccc([N+](=O)[O-])c(C)c2Br)cccc1C(=O)Nc1c(Cl)cc(C(F)(C(F)(F)F)C(F)(F)C(F)(F)F)cc1Br (stereo not drawn) [B162]
not listed: [3]
≥ 80%: all other assays above

COc1c(NC(=O)c2ccc([N+](=O)[O-])c(C)c2Cl)cccc1C(=O)Nc1c(Cl)cc(C(F)(C(F)(F)F)C(F)(F)C(F)(F)F)cc1Br (stereo not drawn) [B163]
not listed: [3]
≥ 80%: all other assays above

COc1c(NC(=O)c2ccc(C(F)(F)F)cc2F)cccc1C(=O)Nc1c(Cl)cc(C(F)(C(F)(F)F)C(F)(F)C(F)(F)F)cc1Br (stereo not drawn) [B167]
not listed: [2]
≥ 80%: all other assays above

COc1c(NC(=O)c2ccc([N+](=O)[O-])c(N(C)C)c2)cccc1C(=O)Nc1c(Cl)cc(C(F)(C(F)(F)F)C(F)(F)C(F)(F)F)cc1Br (stereo not drawn) [B175]
not listed: [4]
≥ 80%: all other assays above

COc1c(NC(=O)c2ccccc2F)cccc1C(=O)Nc1c(Cl)cc(C(F)(C(F)(F)F)C(F)(F)C(F)(F)F)cc1Cl (stereo not drawn) [C3]
≥ 80%: all assays above

COc1c(NC(=O)c2ccccc2Cl)cccc1C(=O)Nc1c(Cl)cc(C(F)(C(F)(F)F)C(F)(F)F)cc1Cl [E3]
not listed: [2]
≥ 80%: all other assays above

COc1c(NC(=O)c2ccccc2C(F)(F)F)cccc1C(=O)Nc1c(Cl)cc(C(F)(C(F)(F)F)C(F)(F)F)cc1Cl [E18]
≥ 80%: all assays above

COc1c(NC(=O)c2ccc(F)cc2F)cccc1C(=O)Nc1c(Cl)cc(C(F)(C(F)(F)F)C(F)(F)F)cc1Cl [E22]
≥ 80%: all assays above

COc1c(NC(=O)c2ccccc2Cl)cccc1C(=O)Nc1c(C)cc(C(F)(C(F)(F)F)C(F)(F)C(F)(F)F)cc1C (stereo not drawn) [F3]
≥ 80%: all assays above

COc1c(NC(=O)c2cccc(F)c2F)cccc1C(=O)Nc1c(C)cc(C(F)(C(F)(F)F)C(F)(F)C(F)(F)F)cc1C (stereo not drawn) [F8]
≥ 80%: all assays above

COc1c(NC(=O)c2ccc(Cl)c(Cl)c2)cccc1C(=O)Nc1c(C)cc(C(F)(C(F)(F)F)C(F)(F)C(F)(F)F)cc1C (stereo not drawn) [F17]
not listed: [1]
≥ 80%: all other assays above

COc1c(NC(=O)c2ccc(Cl)cc2)cccc1C(=O)Nc1c(C)cc(C(F)(C(F)(F)F)C(F)(F)C(F)(F)F)cc1C (stereo not drawn) [F19]
not listed: [1]
≥ 80%: all other assays above

COc1c(NC(=O)c2cccc(F)c2)cccc1C(=O)Nc1c(C)cc(C(F)(C(F)(F)F)C(F)(F)C(F)(F)F)cc1C (stereo not drawn) [F20]
≥ 80%: all assays above

COc1cccc(C(=O)Nc2cccc(C(=O)Nc3c(C)cc(C(F)(C(F)(F)F)C(F)(F)C(F)(F)F)cc3C)c2OC)c1 (stereo not drawn) [F22]
not listed: [1]
≥ 80%: all other assays above

COc1c(NC(=O)c2ccc([N+](=O)[O-])c(C)c2)cccc1C(=O)Nc1c(C)cc(C(F)(C(F)(F)F)C(F)(F)C(F)(F)F)cc1C (stereo not drawn) [F23]
not listed: [1]
≥ 80%: all other assays above

COc1c(NC(=O)c2ccc(C(F)(F)F)cc2)cccc1C(=O)Nc1c(C)cc(C(F)(C(F)(F)F)C(F)(F)C(F)(F)F)cc1C (stereo not drawn) [F26]
not listed: [1]
≥ 80%: all other assays above
